In US9187471B2, “Pyrido [4,3-b] indole and pyrido [3,4-b] indole derivatives and methods of use” (Medivation Technologies, Inc., priority 2010, dated 2015):

How the values were obtained:
[1] = target: T1, human recombinant histamine H1 receptor (Homo sapiens, UniProt P35367); assay: Histamine H1 radioligand binding ([3H]Pyrilamine); conditions: read-out: Histamine H1 Binding (1 μM), percent inhibition of specific binding; compound at 1 μM; 1.2 nM [3H]Pyrilamine
T1 construct: expressed in transfected cells; host or cells: CHO-K1
T1 sequence (P35367 whole entry): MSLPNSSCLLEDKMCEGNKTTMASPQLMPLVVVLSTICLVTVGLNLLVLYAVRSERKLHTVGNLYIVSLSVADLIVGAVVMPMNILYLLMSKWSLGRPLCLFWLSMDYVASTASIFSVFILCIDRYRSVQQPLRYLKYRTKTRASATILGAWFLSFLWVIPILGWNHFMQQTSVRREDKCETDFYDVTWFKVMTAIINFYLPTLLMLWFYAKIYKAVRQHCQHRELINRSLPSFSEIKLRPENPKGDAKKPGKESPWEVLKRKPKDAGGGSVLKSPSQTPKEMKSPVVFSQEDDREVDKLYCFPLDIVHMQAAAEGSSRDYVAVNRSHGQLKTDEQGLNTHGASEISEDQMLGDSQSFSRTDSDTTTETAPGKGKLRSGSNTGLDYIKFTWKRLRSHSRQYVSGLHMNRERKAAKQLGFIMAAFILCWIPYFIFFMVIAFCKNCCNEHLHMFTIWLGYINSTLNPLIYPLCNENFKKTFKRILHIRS
Summary of the method: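 Results expressed as percent inhibition of specific [3H]pyrilamine binding, counted on filters after washing. Receptor source: CHO-K1 cells expressing recombinant human H1, in modified Tris-HCl buffer (50 mM, pH 7.4; 2 mM MgCl2, 100 mM NaCl, 250 mM sucrose). 1 μM pyrilamine defined non-specific binding.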

[2] = target: T2, rat adrenergic α1A receptor (Rattus norvegicus, UniProt P43140); assay: Adrenergic α1A radioligand binding ([3H]Prazosin); conditions: read-out: Adrenergic (0.1 μM) a1A, percent inhibition of specific binding; compound at 0.1 μM; 0.25 nM [3H]Prazosin
T2 construct: rat adrenergic α1A receptor obtained from Wistar Rat submaxillary glands; from tissue; host or cells: Wistar rat submaxillary glands
T2 sequence (P43140 1-466): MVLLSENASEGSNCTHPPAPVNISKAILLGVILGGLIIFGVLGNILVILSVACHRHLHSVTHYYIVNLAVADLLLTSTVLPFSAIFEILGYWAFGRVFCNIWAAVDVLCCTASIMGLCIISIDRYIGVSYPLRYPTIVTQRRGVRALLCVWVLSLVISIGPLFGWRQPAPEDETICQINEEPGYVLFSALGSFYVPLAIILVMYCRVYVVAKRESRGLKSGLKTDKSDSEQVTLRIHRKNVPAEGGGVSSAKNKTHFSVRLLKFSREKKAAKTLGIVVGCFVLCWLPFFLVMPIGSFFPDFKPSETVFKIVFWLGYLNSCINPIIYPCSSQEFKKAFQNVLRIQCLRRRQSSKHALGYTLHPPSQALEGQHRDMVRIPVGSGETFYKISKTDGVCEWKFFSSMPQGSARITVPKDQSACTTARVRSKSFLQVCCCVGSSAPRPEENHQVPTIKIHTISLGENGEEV
Summary of the method: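 Wistar rat submaxillary gland receptor in 50 mM Tris-HCl pH 7.4 with 0.5 mM EDTA, incubated with compound and 0.25 nM [3H]Prazosin for 60 min at 25 °C.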

[3] = target: T3, human recombinant adrenergic α2C receptor (Homo sapiens, UniProt P18825); assay: Adrenergic α2C radioligand binding ([3H]MK-912); conditions: read-out: Adrenergic (0.1 μM) a2C, percent inhibition of specific binding; compound at 0.1 μM; 1 nM [3H]MK-912
T3 construct: expressed in transfected cells; host or cells: insect Sf9 cells
T3 sequence (P18825 1-462): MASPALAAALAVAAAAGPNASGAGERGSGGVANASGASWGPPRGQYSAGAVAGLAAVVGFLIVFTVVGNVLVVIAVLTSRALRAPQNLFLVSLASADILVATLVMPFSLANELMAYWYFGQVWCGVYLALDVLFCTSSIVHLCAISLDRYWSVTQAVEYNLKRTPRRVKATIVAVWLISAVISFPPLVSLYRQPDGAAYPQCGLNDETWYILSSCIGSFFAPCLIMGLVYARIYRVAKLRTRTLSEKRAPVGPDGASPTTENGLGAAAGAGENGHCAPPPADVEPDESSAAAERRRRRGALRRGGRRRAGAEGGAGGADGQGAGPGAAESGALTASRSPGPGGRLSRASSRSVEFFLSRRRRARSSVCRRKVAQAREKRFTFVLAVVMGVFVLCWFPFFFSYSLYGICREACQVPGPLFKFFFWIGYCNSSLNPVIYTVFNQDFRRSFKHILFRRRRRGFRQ
Summary of the method: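 Membranes from Sf9 cells expressing the human receptor, in 50 mM Tris-HCl pH 7.4 with 12.5 mM MgCl2 and 2 mM EDTA, incubated with compound and 1 nM [3H]MK-912 for 60 min at 25 °C. Non-specific binding defined with 10 μM WB-4101. Filter-bound radioactivity counted; percent inhibition of specific binding reported.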

[4] = target: T4, human recombinant serotonin (5-Hydroxytryptamine) 5-HT2C receptor (Homo sapiens, UniProt P28335); assay: Serotonin 5-HT2C radioligand binding ([3H]Mesulergine); conditions: compound at 0.1 μM; read-out: Inhibition of ligand binding, Serotonin 5-HT2C (percent inhibition of specific binding)
T4 construct: expressed in transfected cells; host or cells: CHO-K1
T4 sequence (P28335 33-458): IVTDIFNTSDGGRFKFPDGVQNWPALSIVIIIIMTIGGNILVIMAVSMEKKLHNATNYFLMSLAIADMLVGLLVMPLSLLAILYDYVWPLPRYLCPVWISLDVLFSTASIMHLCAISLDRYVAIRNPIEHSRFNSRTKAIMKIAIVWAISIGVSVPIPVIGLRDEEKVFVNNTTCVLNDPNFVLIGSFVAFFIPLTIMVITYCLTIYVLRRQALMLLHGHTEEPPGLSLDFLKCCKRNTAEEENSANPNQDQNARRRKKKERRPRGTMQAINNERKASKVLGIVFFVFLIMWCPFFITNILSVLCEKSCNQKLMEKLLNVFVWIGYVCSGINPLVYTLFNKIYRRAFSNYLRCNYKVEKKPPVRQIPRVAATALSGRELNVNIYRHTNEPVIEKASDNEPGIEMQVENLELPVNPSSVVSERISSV
Procedure: Compounds of the invention were incubated with 1 nM [^3H]Mesulergine for 60 min at 25° C. Non-specific binding was estimated in the presence of 1 μM Mianserin. Receptor proteins were filtered and washed, the filters were then counted to determine [^3H]Mesulergine specifically bound.

[5] = target: T5, human recombinant serotonin (5-Hydroxytryptamine) 5-HT6 receptor (Homo sapiens, UniProt P50406); assay: Serotonin 5-HT6 radioligand binding ([3H]LSD); conditions: compound at 0.1 μM; read-out: Inhibition of ligand binding, Serotonin 5-HT6 (percent inhibition of specific binding)
T5 construct: expressed in transfected cells; host or cells: HeLa
T5 sequence (P50406 whole entry): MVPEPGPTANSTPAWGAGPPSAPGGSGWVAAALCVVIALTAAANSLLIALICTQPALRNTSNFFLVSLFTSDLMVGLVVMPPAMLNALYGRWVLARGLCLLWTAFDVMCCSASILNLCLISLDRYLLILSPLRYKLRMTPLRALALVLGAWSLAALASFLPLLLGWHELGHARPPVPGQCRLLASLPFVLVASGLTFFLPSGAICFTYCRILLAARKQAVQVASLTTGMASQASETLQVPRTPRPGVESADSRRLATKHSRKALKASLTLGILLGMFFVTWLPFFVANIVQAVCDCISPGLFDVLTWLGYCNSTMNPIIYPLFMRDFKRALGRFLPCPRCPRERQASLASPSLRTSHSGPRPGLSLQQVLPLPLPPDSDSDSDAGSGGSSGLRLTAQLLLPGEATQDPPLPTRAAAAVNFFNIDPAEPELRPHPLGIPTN
Excerpt: Receptor proteins were filtered and washed, the filters were then counted to determine [3H]LSD specifically bound.

With `Cc1csc(-c2ccc(-n3c4c(c5cc(C)ccc53)CN(C)CC4)nc2)c1` [Compound No. 144, 2,8-dimethyl-5-(5-(4-methylthiophen-2-yl)pyridin-2-yl)-2,3,4,5-tetrahydro-1H-pyrido[4,3-b]indole] the inhibition at 1 µM [1] was 11%, the inhibition at 0.1 µM [2] was 27% and the inhibition at 0.1 µM [3] was 49%. It also gave an inhibition at 0.1 µM [4] of 100% and an inhibition at 0.1 µM [5] of 13%.

`Cc1ccc2c(c1)c1c(n2-c2ccc(-c3cnc(N(C)C)nc3)cn2)CCN(C)C1` [Compound No. 138, 5-(6-(2,8-dimethyl-3,4-dihydro-1H-pyrido[4,3-b]indol-5(2H)-yl)pyridin-3-yl)-N,N-dimethylpyrimidin-2-amine] gave an inhibition at 1 µM [1] of 7%, an inhibition at 0.1 µM [2] of 32% and an inhibition at 0.1 µM [3] of -2%. For the same molecule, the inhibition at 0.1 µM [4] was 86% and the inhibition at 0.1 µM [5] was -6%.

`Cc1ccc2c(c1)c1c(n2-c2ccc(-c3cncc4ccccc34)cn2)CCN(C)C1` [Compound No. 135, 5-(5-(isoquinolin-4-yl)pyridin-2-yl)-2,8-dimethyl-2,3,4,5-tetrahydro-1H-pyrido[4,3-b]indole] was tested, and the inhibition at 1 µM [1] was 10%, the inhibition at 0.1 µM [2] was 36% and the inhibition at 0.1 µM [3] was 13%. It also gave an inhibition at 0.1 µM [4] of 88% and an inhibition at 0.1 µM [5] of 6%.

`Cc1ccc2c(c1)c1c(n2-c2cccc(-c3cnn(C)c3)c2)CCN(C)C1` [Compound 46, 2,8-dimethyl-5-(3-(1-methyl-1H-pyrazol-4-yl)phenyl)-2,3,4,5-tetrahydro-1H-pyrido[4,3-b]indole] showed an inhibition at 1 µM [1] of 19%, an inhibition at 0.1 µM [2] of 16% and an inhibition at 0.1 µM [3] of 6%. The inhibition at 0.1 µM [4] was 41% and the inhibition at 0.1 µM [5] was 14%.

In the case of `Cc1ccc2c(c1)c1c(n2-c2ccc(-c3cccc4[nH]ncc34)cn2)CCN(C)C1` [Compound No. 147, 5-(5-(1H-indazol-4-yl)pyridin-2-yl)-2,8-dimethyl-2,3,4,5-tetrahydro-1H-pyrido[4,3-b]indole], the inhibition at 1 µM [1] is reported as 8%, the inhibition at 0.1 µM [2] is reported as 37% and the inhibition at 0.1 µM [3] is reported as 1%. The inhibition at 0.1 µM [4] was 69% and the inhibition at 0.1 µM [5] was 15%.

For `Cc1ccc2c(c1)c1c(n2-c2ccccc2-c2ccc(F)nc2)CCN(C)C1` [Compound No. 84, 5-(2-(6-fluoropyridin-3-yl)phenyl)-2,8-dimethyl-2,3,4,5-tetrahydro-1H-pyrido[4,3-b]indole], the inhibition at 1 µM [1] was 26%, the inhibition at 0.1 µM [2] was 61% and the inhibition at 0.1 µM [3] was 23%. The inhibition at 0.1 µM [4] was 75% and the inhibition at 0.1 µM [5] was 20%.

`CNC(=O)c1ccc(-c2cccc(-n3c4c(c5cc(C)ccc53)CN(C)CC4)c2)cn1` [Compound No. 75, 5-(3-(2,8-dimethyl-3,4-dihydro-1H-pyrido[4,3-b]indol-5(2H)-yl)phenyl)-N-methylpicolinamide] showed an inhibition at 1 µM [1] of 19%, an inhibition at 0.1 µM [2] of 21% and an inhibition at 0.1 µM [3] of -3%. For the same molecule, the inhibition at 0.1 µM [4] was 25% and the inhibition at 0.1 µM [5] was 4%.

Work on `Cc1ccc2c(c1)c1c(n2-c2cccc(-c3cncc4ccccc34)c2)CCN(C)C1` [Compound No. 67, 5-(3-(isoquinolin-4-yl)phenyl)-2,8-dimethyl-2,3,4,5-tetrahydro-1H-pyrido[4,3-b]indole] yielded an inhibition at 1 µM [1] of 32%, an inhibition at 0.1 µM [2] of 1% and an inhibition at 0.1 µM [3] of 8%. The inhibition at 0.1 µM [4] was 23% and the inhibition at 0.1 µM [5] was 29%.

For `Cc1ccc2c(c1)c1c(n2-c2ccc(-c3ccc(S(N)(=O)=O)cc3)cn2)CCN(C)C1` [Compound No. 145, 4-(6-(2,8-dimethyl-3,4-dihydro-1H-pyrido[4,3-b]indol-5(2H)-yl)pyridin-3-yl)benzenesulfonamide], the inhibition at 1 µM [1] was 17%, the inhibition at 0.1 µM [2] was 44% and the inhibition at 0.1 µM [3] was 6%. The inhibition at 0.1 µM [4] was 66% and the inhibition at 0.1 µM [5] was -11%.

`Cc1csc(-c2ccccc2-n2c3c(c4cc(C)ccc42)CN(C)CC3)c1` [Compound 36] showed an inhibition at 1 µM [1] of 16%, an inhibition at 0.1 µM [2] of -6% and an inhibition at 0.1 µM [3] of 67%. For the same molecule, the inhibition at 0.1 µM [4] was 83% and the inhibition at 0.1 µM [5] was 13%.

Work on `Cc1ccc2c(c1)c1c(n2-c2ccc(-c3ccc(F)cc3)cn2)CCN(C)C1` [Compound No. 140, 5-(5-(4-fluorophenyl)pyridin-2-yl)-2,8-dimethyl-2,3,4,5-tetrahydro-1H-pyrido[4,3-b]indole] yielded an inhibition at 1 µM [1] of 10%, an inhibition at 0.1 µM [2] of 31% and an inhibition at 0.1 µM [3] of 53%. It also gave an inhibition at 0.1 µM [4] of 100% and an inhibition at 0.1 µM [5] of 41%.

For `Cc1ccc2c(c1)c1c(n2-c2cccc(-c3cn[nH]c3)c2)CCN(C)C1` [Compound No. 70, 5-(3-(1H-pyrazol-4-yl)phenyl)-2,8-dimethyl-2,3,4,5-tetrahydro-1H-pyrido[4,3-b]indole], the inhibition at 1 µM [1] was 8%, the inhibition at 0.1 µM [2] was 5% and the inhibition at 0.1 µM [3] was 8%. The inhibition at 0.1 µM [4] was 81% and the inhibition at 0.1 µM [5] was 0%.

In the case of `Cc1cc(C)c2c(c1)c1c(n2-c2ccc3ncccc3c2)CCN(C)C1` [Compound 48], the inhibition at 1 µM [1] is reported as 4%, the inhibition at 0.1 µM [2] is reported as -6% and the inhibition at 0.1 µM [3] is reported as -7%. It also gave an inhibition at 0.1 µM [4] of 47% and an inhibition at 0.1 µM [5] of 20%.

In the case of `Cc1ccc2c(c1)c1c(n2-c2cccc(-c3ccc(S(C)(=O)=O)cc3)c2)CCN(C)C1` [Compound No. 131, 2,8-dimethyl-5-(4′-(methylsulfonyl)biphenyl-3-yl)-2,3,4,5-tetrahydro-1H-pyrido[4,3-b]indole], the inhibition at 1 µM [1] is reported as 20%, the inhibition at 0.1 µM [2] is reported as 0% and the inhibition at 0.1 µM [3] is reported as 13%. The inhibition at 0.1 µM [4] was -6% and the inhibition at 0.1 µM [5] was -3%.

Work on `Cc1ccc2c(c1)c1c(n2-c2ccc(-c3cccnc3)cn2)CCN(C)C1` [Compound No. 133, 5-(3,3′-bipyridin-6-yl)-2,8-dimethyl-2,3,4,5-tetrahydro-1H-pyrido[4,3-b]indole] yielded an inhibition at 1 µM [1] of 6%, an inhibition at 0.1 µM [2] of 21% and an inhibition at 0.1 µM [3] of 0%. For the same molecule, the inhibition at 0.1 µM [4] was 92% and the inhibition at 0.1 µM [5] was 10%.

With `Cc1ccc2c(c1)c1c(n2-c2cscc2C(=O)N(C)C)CCN(C)C1` [Compound No. 152] the inhibition at 1 µM [1] was 16%, the inhibition at 0.1 µM [2] was 6% and the inhibition at 0.1 µM [3] was 12%. The inhibition at 0.1 µM [4] was 22% and the inhibition at 0.1 µM [5] was 22%.

Molecule `Cc1ccc2c(c1)c1c(n2-c2ccccc2-c2ccc(C)nc2)CCN(C)C1` [Compound 59, 2,8-dimethyl-5-(2-(6-methylpyridin-3-yl)phenyl)-2,3,4,5-tetrahydro-1H-pyrido[4,3-b]indole] has an inhibition at 1 µM [1] of 27%, an inhibition at 0.1 µM [2] of 42% and an inhibition at 0.1 µM [3] of 25%. It also gave an inhibition at 0.1 µM [4] of 46% and an inhibition at 0.1 µM [5] of 17%.
